The subject of one series is Venturia inaequalis. As to the kind of experiment: Example H: in vivo preventive test on Venturia test (apples). The conditions noted are these: 240 h, 100 ppm of active ingredient, preventive spray, evaluated 10 days after inoculation, read-out: efficacy. As for the experimental part:
Example H: In Vivo Preventive Test on Venturia Test (Apples) [table] To produce a suitable preparation of active compound, 1 part by weight of active compound is mixed with the stated amounts of solvent and emulsifier, and the concentrate is diluted with water to the desired concentration. To test for preventive activity, young plants are sprayed with the preparation of active compound at the stated rate of application. After the spray coating has dried on, the plants are inoculated with an aqueous conidia suspension of the causal agent of apple scab (Venturia inaequalis) and then remain for 1 day in an incubation cabinet at approximately 20° C. and a relative atmospheric humidity of 100%. The plants are then placed in a greenhouse at approximately 21° C. and a relative atmospheric humidity of approximately 90%. The test is evaluated 10 days after the inoculation. 0% means an efficacy which corresponds to that of the untreated control, while an efficacy of 100% means that no disease is observed.

Series [1] relates to Sphaerotheca fuliginea. The series can be described thus: Example M: in vivo preventive test on Sphaerotheca (cucumbers); comparison of phenoxy-pyridyl compounds vs. known phenoxy-phenyl compounds. As to conditions: Podosphaera fuliginea, 168 h, rate of application 10 ppm, evaluated 7 days after inoculation, read-out: Efficacy in %. As for the experimental part:
Example M: In Vivo Preventive Test on Sphaerotheca (Cucumbers); Comparison of Phenoxy-pyridyl Compounds According to the Invention Vs. Known Phenoxy-phenyl Compounds [table] To produce a suitable preparation of active compound, 1 part by weight of active compound is mixed with the above stated amounts of solvent and emulsifier, and the concentrate is diluted with water to the desired concentration. To test for preventive activity, young plants are sprayed with the preparation of active compound at the stated rate of application. After the spray coating has dried on, the plants are inoculated with an aqueous spore suspension of Sphaerotheca fuliginea. The plants are then placed in a greenhouse at approximately 23° C. and a relative atmospheric humidity of approximately 70%. The test is evaluated 7 days after the inoculation. 0% means an efficacy which corresponds to that of the untreated control, while an efficacy of 100% means that no disease is observed. [table]

A further series has as its system Puccinia recondita. As to the kind of experiment: Example B: in vivo preventive test on Puccinia recondita (brown rust on wheat). The conditions noted are these: 264 h, 500 ppm of active ingredient, wheat plants, preventive spray, evaluated 11 days after inoculation, read-out: efficacy. On the procedure:
(§1) Example B: In Vivo Preventive Test on Puccinia recondita (Brown Rust on Wheat) [table] The active ingredients are made soluble and homogenized in a mixture of Dimethyl sulfoxide/Acetone//Tween® 80 and then diluted in water to the desired concentration. The young plants of wheat are treated by spraying the active ingredient prepared as described above. Control plants are treated only with an aqueous solution of Acetone/Dimethyl sulfoxide/Tween® 80. After 24 hours, the plants are contaminated by spraying the leaves with an aqueous suspension of Puccinia recondita spores. The contaminated wheat plants are incubated for 24 hours at 20° C. and at 100% relative humidity and then for 10 days at 20° C. and at 70-80% relative humidity. The test is evaluated 11 days after the inoculation. 0% means an efficacy which corresponds to that of the control plants while an efficacy of 100% means that no disease is observed.

Series [2] is described as follows: Measurement of LogP values by HPLC on reversed phase columns (EEC directive 79/831 Annex V.A8). The format is physicochemical. As to conditions: reversed phase HPLC column, method [a]: LC-UV, acidic range, 0.1% formic acid in water and acetonitrile as eluent. In outline:
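Calibrated with straight-chain alkan-2-ones (3–16 carbons) of known LogP, using retention times with linear interpolation between successive alkanones. Where one method gives several LogP values, all are listed, joined by "+". Lambda-max taken from UV spectra (200–400 nm) at chromatographic peak maxima.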

The test system of the next series is Alternaria solani. As to the kind of experiment: Example F: in vivo preventive test on Alternaria test (tomatoes). The conditions noted are these: 72 h, 100 ppm of active ingredient, preventive spray, evaluated 3 days after inoculation, read-out: efficacy. As for the experimental part:
Example F: In Vivo Preventive Test on Alternaria Test (Tomatoes) [table] To produce a suitable preparation of active compound, 1 part by weight of active compound is mixed with the stated amounts of solvent and emulsifier, and the concentrate is diluted with water to the desired concentration. To test for preventive activity, young plants are sprayed with the preparation of active compound at the stated rate of application. After the spray coating has dried on, the plants are inoculated with an aqueous spore suspension of Alternaria solani. The plants are then placed in an incubation cabinet at approximately 20° C. and a relative atmospheric humidity of 100%. The test is evaluated 3 days after the inoculation. 0% means an efficacy which corresponds to that of the untreated control while an efficacy of 100% means that no disease is observed.

For a further series, the system named is Botrytis cinerea. As to the kind of experiment: Example A: in vivo preventive test on Botrytis cinerea (grey mould), gherkin. As to conditions: gherkin plants, preventive spray, evaluated 4 to 5 days after inoculation, read-out: efficacy. On the procedure:
Example A: In Vivo Preventive Test on Botrytis cinerea (Grey Mould) [table] The active ingredients are made soluble and homogenized in a mixture of Dimethyl sulfoxide/Acetone//Tween® 80 and then diluted in water to the desired concentration. The young plants of gherkin are treated by spraying the active ingredient prepared as described above. Control plants are treated only with an aqueous solution of Acetone/Dimethyl sulfoxide/Tween® 80. After 24 hours, the plants are contaminated by spraying the leaves with an aqueous suspension of Botrytis cinerea spores. The contaminated gherkin plants are incubated for 4 to 5 days at 17° C. and at 90% relative humidity. The test is evaluated 4 to 5 days after the inoculation. 0% means an efficacy which corresponds to that of the control plants while an efficacy of 100% means that no disease is observed.

Series [3] concerns Sphaerotheca fuliginea. The series can be described thus: Example D: in vivo preventive test on Sphaerotheca fuliginea (powdery mildew on cucurbits). As to conditions: Podosphaera fuliginea, 360 h; 500 ppm of active ingredient; gherkin plants, preventive spray; evaluated 15 days after inoculation; read-out: efficacy. As for the experimental part: Example D: In Vivo Preventive Test on Sphaerotheca fuliginea (Powdery Mildew on Cucurbits) [table] The active ingredients are made soluble and homogenized in a mixture of Dimethyl sulfoxide/Acetone//Tween® 80 and then diluted in water to the desired concentration. The young plants of gherkin are treated by spraying the active ingredient prepared as described above. Control plants are treated only with an aqueous solution of Acetone/Dimethyl sulfoxide/Tween® 80. After 24 hours, the plants are contaminated by spraying the leaves with an aqueous suspension of Sphaerotheca fuliginea spores. The contaminated gherkin plants are incubated for 72 hours at 18° C. and at 100% relative humidity and then for 12 days at 20° C. and at 70-80% relative humidity. The test is evaluated 15 days after the inoculation. 0% means an efficacy which corresponds to that of the control plants while an efficacy of 100% means that no disease is observed.

The next series concerns Uromyces appendiculatus. As to the kind of experiment: Example E: in vivo preventive test on Uromyces appendiculatus (bean rust). The conditions noted are these: 264 h, 500 ppm of active ingredient, bean plants, preventive spray, evaluated 11 days after inoculation, read-out: efficacy. On the procedure: as §1, with “E:” for “B:”, “Uromyces appendiculatus (Bean Rust)” for “Puccinia recondita (Brown Rust on Wheat)”, “bean” for “wheat”, “Uromyces appendiculatus” for “Puccinia recondita”

In a further series the test system is Septoria tritici. The series can be described thus: Example C: in vivo preventive test on Septoria tritici (leaf spot on wheat). As to conditions: Zymoseptoria tritici, 576 h; 500 ppm of active ingredient; wheat plants, preventive spray; evaluated 24 days after inoculation; read-out: efficacy. As for the experimental part:
Example C: In Vivo Preventive Test on Septoria tritici (Leaf Spot on Wheat) [table] The active ingredients are made soluble and homogenized in a mixture of Dimethyl sulfoxide/Acetone//Tween® 80 and then diluted in water to the desired concentration. The young plants of wheat are treated by spraying the active ingredient prepared as described above. Control plants are treated only with an aqueous solution of Acetone/Dimethyl sulfoxide/Tween® 80. After 24 hours, the plants are contaminated by spraying the leaves with an aqueous suspension of Septoria tritici spores. The contaminated wheat plants are incubated for 72 hours at 18° C. and at 100% relative humidity and then for 21 days at 20° C. and at 90% relative humidity. The test is evaluated 24 days after the inoculation. 0% means an efficacy which corresponds to that of the control plants while an efficacy of 100% means that no disease is observed.

`Cc1ccc(Oc2ccc(C(C)(O)Cn3cncn3)c(Cl)n2)cc1Cl` (stereo not drawn) [I.29]: the pest or weed control at 100 ppm in the series with Venturia inaequalis and in the series with Alternaria solani was 90 to 100% each time. The pest or weed control at 10 ppm in the series with Sphaerotheca fuliginea [1] was found to be 95%. The pest or weed control at 500 ppm with Puccinia recondita lay within 80 to 89%; in the series with Sphaerotheca fuliginea [3], 90 to 100%; with Uromyces appendiculatus, 90 to 100%; in the series with Septoria tritici it was 90 to 100%. This compound also had a chromatographic logP in series [2] of 3. In the series with Botrytis cinerea, the pest or weed control lay in the range of 90 to 100%.

What is called chromatographic logP is lipophilicity estimated from chromatographic retention. High values mean a more lipophilic compound, low ones a more hydrophilic compound.

(Values after US10485236B2, “Triazole derivatives, intermediates thereof and their use as fungicides” (Bayer CropScience Aktiengesellschaft, priority 2015, dated 2019).)
